Test results from US20100137353A1, “TRICYCLIC COMPOUNDS AS ANTIBACTERIALS” (GLAXO GROUP LIMITED, priority 2007, published 2010).
Structures can show the parent of a compound that is named as a salt.

Columns and labels:
[1] = Whole-cell antimicrobial activity assay, broth microdilution (CLSI M7-A7); format: cell-based; details: against a strain of at least one of the organisms listed; tested in at least one exemplified salt form; dilutions 0.016 to 16 mcg/mL; read-out: MIC (minimum inhibitory concentration)
Protocol: Whole-cell antimicrobial activity was determined by broth microdilution using the Clinical and Laboratory Standards Institute (CLSI) recommended procedure, Document M7-A7, “Methods for Dilution Susceptibility Tests for Bacteria that Grow Aerobically”. The compounds were tested in serial two-fold dilutions ranging from 0.016 to 16 mcg/mL.
The minimum inhibitory concentration (MIC) was determined as the lowest concentration of compound that inhibited visible growth. A mirror reader was used to assist in determining the MIC endpoint.
Compounds were evaluated against Gram-positive organisms, including Staphylococcus aureus, Streptococcus pneumoniae, Streptococcus pyogenes, Enterococcus faecalis and Enterococcus faecium.
In addition, compounds were evaluated against Gram-negative strains including Haemophilus influenzae, Moraxella catarrhalis, Escherichia coli, Pseudomonas aeruginosa, Proteus mirabilis, Enterobacter cloacae, Enterobacter aerogenes, Klebsiella pneumoniae and Stenotrophomonas maltophilia.

[2] = system: Mycobacterium tuberculosis H37Rv; assay: Mycobacterium tuberculosis H37Rv Inhibition Assay; format: cell-based; details: ATCC 25618 / H37Rv, H37Rv strain (ATCC25618), Middlebrook 7H9+ADC, resazurin fluorescence readout
Protocol: Mycobacterium tuberculosis H37Rv Inhibition Assay
The measurement of the minimum inhibitory concentration (MIC) for each tested compound was performed in 96 wells flat-bottom, polystyrene microtiter plates. Ten two-fold drug dilutions in neat DMSO starting at 400 μM were performed. Five μl of these drug solutions were added to 95 μl of Middlebrook 7H9 medium. (Lines A-H, rows 1-10 of the plate layout). Isoniazid was used as a positive control, 8 two-fold dilution of Isoniazid starting at 160 μgml^−1 was prepared and 5 μl of this control curve was added to 95 μl of Middlebrook 7H9 (Difco catalogue Ref. 271310)+ADC medium (Becton Dickinson Catalogue Ref 211887). (Row 11, lines A-H). Five μl of neat DMSO were added to row 12 (growth and Blank controls).
The inoculum was standardised to approximately 1×10^7 cfu/ml and diluted 1 in 100 in Middlebrook 7H9+ADC medium and 0.025% Tween 80 (Sigma P4780), to produce the final inoculum of H37Rv strain (ATCC25618). One hundred μl of this inoculum was added to the entire plate but G-12 and H-12 wells (Blank controls). All plates were placed in a sealed box to prevent drying out of the peripheral wells and they were incubated at 37° C. without shaking for six days. […] Fluorescence was measured (Spectramax M5 Molecular Devices, Excitation 530 nm, Emission 590 nm) after 48 hours to determine the MIC value. […]

O=c1ccc2ncc(F)c3c2n1C[C@@]3(O)CN1CCC(NC/C=C/c2ccccn2)CC1 [Example 1, (4S)-3-Fluoro-4-hydroxy-4-[(4-{[(2E)-3-(2-pyridinyl)-2-propen-1-yl]amino}-1-piperidinyl)methyl]-4,5-dihydro-7H-pyrrolo[3,2,1-de]-1,5-naphthyridin-7-one dihydrochloride]
MIC [1]: ≤ 2 mg/L

O=c1ccc2ncc(F)c3c2n1C[C@@]3(O)CN1CCC(NC/C=C/c2ccco2)CC1 [Example 2, (4S)-3-Fluoro-4-[(4-{[(2E)-3-(2-furanyl)-2-propen-1-yl]amino}-1-piperidinyl)methyl]-4-hydroxy-4,5-dihydro-7H-pyrrolo[3,2,1-de]-1,5-naphthyridin-7-one dihydrochloride]
MIC [1]: ≤ 2 mg/L | MIC [2]: ≤ 5.1 mg/L
